Reference: patent publication US20110212890A1, “METASTIN DERIVATIVE AND USE THEREOF” (Takeda Pharmaceutical Company Limited, priority 2008, published 2011)
Ahx = NCCCCCC(=O)O

Assays:
male Crl: CD (SD) rats [1] = experiment: LH release action in male rat (plasma LH by radioimmunoassay); type: in vivo
Procedure: (§1) For male Crl: CD (SD) rats (8 or 10 weeks old), compounds 1 (10 weeks old), 3, 8, 9, 10 and 11 (8 weeks old) (1, 10 or 100 nmol/kg), and metastin (45-54) (PEPTIDE INSTITUTE, INC., 10 or 100 nmol/kg), which were dissolved in physiological saline, were administered subcutaneously to the dorsum. For the control group, a physiological saline was administered subcutaneously to the dorsum. About 0.4 mL of the blood was collected from the tail vein before the administration (0 hour) and after 0.5, 1, 2, 4 hours of the administration of compounds 1, 3, 8, 9, 10 and 11, and metastin (45-54), or physiological saline. The collected blood was well mixed with 12 μL of 10 w/v % EDTA.2Na-containing trasylol solution (Bayer AG), and then separated by centrifugation at 12,000 rpm for 10 minutes, and the supernatant was recovered as the plasma sample. The concentrations of luteinizing hormone (LH) and total testosterone in the plasma were measured with radioimmunoassay (rat LH RIA Immuno-reagent set, National Hormone and Peptide Program, available from Dr. A. F. Parlow, The National Institute of Diabetes and Digestive and Kidney Diseases, and DPC Total Testosterone Kit, Mitsubishi Chemical Formula Iatron, Inc.).

male Crl: CD (SD) rats [2] = experiment: Testosterone release action in male rat (plasma total testosterone by radioimmunoassay); type: in vivo
Procedure: as §1

[3] = subcutaneous to the dorsum, 1, 10 or 100 nmol/kg, AUC from 0 hour to 4 hours after the administration, vs control group

Substance	degree of increase in LH concentration in the plasma in comparison to metastin (45-54) (male Crl: CD (SD) rats [1]; subcutaneous)	degree of increase in total testosterone concentration in the plasma in comparison to metastin (45-54) (male Crl: CD (SD) rats [2]; subcutaneous)	dose showing (significant) increase in the LH concentration in the plasma (AUC) (male Crl: CD (SD) rats [1]; [3]) [nmol/kg]	dose showing (significant) increase in the total testosterone concentration in the plasma (AUC) (male Crl: CD (SD) rats [2]; [3]) [nmol/kg]
PEG5K(CS)-CO-Acp-Tyr-Asn-Trp-Asn-Ser-Phe-Gly-Leu-Arg-Phe-NH2 ({PEG5K(CS)‑CO-Ahx}-YNWNSFGLRF-NH2) [compound 1]	greater degree of increase	greater degree of increase		
metastin (45-54): peptide consisting of the N-terminal 45th-54th amino acid sequence of human metastin (SEQ ID NO: 16); PEPTIDE INSTITUTE, INC. (YNWNSFGLRF)			100	100
